Laboratory results published in ChEMBL document CHEMBL3112555, “Danshen diversity defeating dementia” (Bioorg Med Chem Lett, 2014).

Key:
Conditions in all cases: in vivo
[1] = Oral bioavailability in rat at 100 mg/kg; type: ADME, organism-based
[2] = Bioavailability in rat at 100 mg/kg, ip; type: ADME, organism-based
[3] = Bioavailability in beagle dog; type: ADME, organism-based, Canis lupus familiaris

| SMILES | bioavailability [1] | bioavailability [2] | bioavailability [3] |
| --- | --- | --- | --- |
| C[C@H]1COC2=C1C(=O)C(=O)c1c2ccc2c1CCCC2(C)C [CRYPTOTANSHINONE] | 2.1% | 10.6% |  |
| O=C(/C=C/c1ccc(O)c(O)c1/C=C/c1ccc(O)c(O)c1)O[C@H](Cc1ccc(O)c(O)c1)C(=O)O [SALVIANOLIC ACID A] |  |  | 1.47% |
